Measurements: patent US20180312237A1, “BALLAST WATER TREATMENT DEVICE AND BALLAST WATER TREATMENT METHOD” (Kuraray Co., Ltd., priority 2015, published 2018)

Legend:
[1] = TRO concentration of sampled ballast water, DPD colorimeter II; type: physicochemical
Procedure: The ballast water treatment device 1 further includes a concentration measurement unit 41. […] The concentration measurement unit 41 is a sensor for measuring a chlorine concentration of ballast water in the ballast tank 60. Here, a “chlorine concentration (mg/L)” is measured as a total residual oxidant (TRO) concentration of seawater. The TRO concentration can be measured by a measuring instrument using a DPD reagent or the like. […] While in the present embodiment, the concentration measurement unit 41 is attached to the ballast tank 60, the position of the concentration measurement unit 41 is not limited thereto but can be any position that enables a concentration of a sterilizing component of the ballast water in the ballast tank 60 to be measured. For example, the concentration measurement unit 41 may be attached to the circulation pipe 80, or the concentration measurement unit 41 may be attached to the detour pipe 90, or the concentration measurement unit 41 may be attached to the main pipe 2 between the first connection part 2C and the second connection part 2D.
Next, by pouring a solution of TRO 2000 mg/L with dissolved sodium dichloroisocyanurate from a sterilizing component-introducing unit 40 to the seawater after being filtered by the above filter, the seawater was made to include a chlorine component. By stirring the seawater including a chlorine component by a mixer 50, a chlorine component in the seawater was made uniform to become ballast water, and the ballast tank 60 was filled with the ballast water. […]
(§1) With respect to each of the above sampled three kinds of ballast water (the ballast water immediately after filling, the ballast water after a lapse of 10 days after filling, and the ballast water in the ballast tank after the ballast water circulation), a TRO concentration and the number of heterotrophic bacteria (seawater medium) were measured. Additionally, as a comparison, the number of heterotrophic bacteria of the seawater was measured. As the TRO concentration, a value measured by a DPD colorimeter II (product of Hach Company) was adopted.

heterotrophic bacteria = assay: Number of heterotrophic bacteria (seawater medium) in sampled ballast water; type: cell-based
Procedure: In the present example, using a ballast water treatment device 100 shown in FIG. 8, 100 m^3 of seawater was supplied to a ballast tank 60 with a capacity of about 200 m^3. Specifically, first, a ballast pump 10 was activated to take in seawater from a pipe port 2A of a main pipe 2 by pump pressure. Microbes or particles in the seawater were removed by allowing the seawater to pass through a filter 20.
Next, by pouring a solution of TRO 2000 mg/L with dissolved sodium dichloroisocyanurate from a sterilizing component-introducing unit 40 to the seawater after being filtered by the above filter, the seawater was made to include a chlorine component. […]
as §1

[2] = ballast water after a lapse of 10 days after filling

Compound: O=c1[n-]c(=O)n(Cl)c(=O)n1Cl.[Na+] [sodium dichloroisocyanurate]
- TRO concentration [1, 2]: 0.2 mg/L
- TRO concentration ([1]; ballast water after circulation with additional sterilizing component): 3.2 mg/L
- TRO concentration ([1]; ballast water immediately after filling): 5.0 mg/L
- The number of bacteria (heterotrophic bacteria; [2]): 4.6 × 10^5 cfu/cc
- The number of bacteria (heterotrophic bacteria; ballast water immediately after filling, filtered seawater with poured TRO 2000 mg/L solution): 7.4 × 10^1 cfu/cc
